{"source": "patent US20190119193A1", "about": "“COMPOSITION FOR REGULATING PLANT GROWTH, METHOD FOR TREATING PLANTS THEREWITH, AND ACTIVE INGREDIENT THEREOF” (Ivan Aleksandrovich Starikov, priority 2016, published 2019)", "test_system": "spring wheat of “Lubava” variety", "test": "Field tests of DMOA and DEOA on wheat", "format": "in vivo", "conditions": "for Effect on wheat growth, yield and quality (in words): aqueous solutions in the proposed concentrations, field test under stress (abundant rainfalls)", "protocol": "After that DMOA and DEOA were separately dissolved in dimethyl sulfoxide to give solutions of 10 g/L concentration, then water was added to give aqueous solutions of DMOA with the concentrations of 5.5·10^−8 M, 5.5·10^−9 M, 1.8·10^−9 M, 5.5·10^−10 M, 1.8·10^−10 M, 1.8·10^−11 M, and DEOA with the concentrations of 4.8·10^−8 M, 4.8·10^−9 M, […], 4.8·10^−10 M, 1.6·10^−10 M, 1.6·10^−11 M.\nThe field tests of the obtained aqueous solutions of DMOA and DEOA on spring wheat of “Lubava” variety were carried out. The tests were carried out in agroclimatic zone I, on the experimental field of the Grain Crops Protection Systems Laboratory of the Agricultural Research Center of Federal State Budgetary Scientific Institution “Moscow Research Institute of Agriculture” “Nemchinovka” “(Moscow Region, Odintsovo district, settlement Novoivanovskaya, 2015) according to the method adopted for registration tests of plant growth regulators (Guidelines for conducting registration tests of new forms of fertilizers, bioregulators and plant regulators. Moscow-Vladimir, 2009, p. 104; The method of state variety testing of agricultural crops. Grain, cereal, grain legumes and forage crops. Issue 1, Moscow, 1985, page 269, Issue 2, Moscow, 1989, p. 194; OST 10-108-87; GOST 26212-91; GOST-91).\nThe soil of the experimental field is sod-podzolic on clay loam mantle.\nTests were conducted starting from Apr. 29 to Jul. 30, 2015. In the first half of the growing period the weather conditions were unfavorable (abundant rainfalls in May and June), which is a significant stress factor.\nControl test—without growth regulators treatment.\nArea of experimental plots—100 m^2, accounting area—50 m^2. Fourfold replication of the experiments.\nPreceding crop was winter wheat. Immediately after the autumn harvesting of winter crops the area was treated with disc harrow to a depth of 10-12 cm. Then, fall plowing to a depth of 18-20 cm by a reverse plow, harrowing, and moisture conservation were carried out.\nBefore seeding the test crop, the soil was fertilized with nitrogen-phosphorus-potassium fertilizer in a dose of N64P64K64. Date of sowing: Apr. 29, 2015 Seeding rate: 5.0 million of germinated grains per 1 hectare.\nBefore seeding, all the seeds were treated with “Vincite Forte” fungicide with a consumption rate of 1.0 L per ton of seeds, as well as the aqueous solution of DMOA or DEOA selected for the experiment with a consumption rate of 10 L per ton of seeds (this aqueous solution was directly used as a liquid for treatment) or without a growth regulator, depending on the experiment. The following concentrations of the test solutions were used for treatment: 5.5·10^−8 M, 5.5·10^−9 M and 5.5·10^−10 M of DMOA; 4.8·10^−8 M, 4.8·10^−9 M and 4.8·10^−10 M of DEOA.\nAt the tillering phase (May 23) the crops were sprayed against weeds with “Linthur” herbicide at a dose of 175.0 g/ha, pesticides “BI-58 Novy” were used against pests at a dose of 0.5 L/ha, and against the leaf-stems diseases the crops were sprayed at the early ear emergence stage (June 20) with “Alto Super” fungicide at a dose of 0.5 L/ha together with aqueous solutions of DMOA or DEOA (or without them). Spraying with aqueous solutions of DMOA or DEOA allows to additionally stimulate plant growth. In this case the dosage of aqueous solutions of DMEA or DEOA was 300 L/ha (these solutions were sprayed directly). Spraying with aqueous solutions of DMEA and DEOA was carried out for all variants, where DMOA and DEOA were used for seed treatment. The concentration of the spraying solution was one-thirtieth of the concentration of the solution previously used for treatment of seeds. Accordingly, for DMOA: 1.8·10^−9 M, 1.8·10^−10 M, 1.8·10^−11 M; and for DEOA: 1.6·10^−9 M, 1.6·10^−10 M, 1.6·10^−11 M.\nHarvesting of experimental plots was carried out on July 30, before harvesting test sheaves of 0.25 m^2 of each variant of the experiment were taken for structural analysis. […]", "key": {"[1]": {"conditions": "seeds treated 4.8 · 10^−8M, sprayed 1.6·10^−9 M"}, "[2]": {"conditions": "seeds treated 4.8 · 10^−9M, sprayed 1.6·10^−10 M"}, "[3]": {"conditions": "seeds treated 4.8 · 10^−10M, sprayed 1.6·10^−11 M"}, "[4]": {"conditions": "seeds treated 5.5 · 10^−8M, sprayed 1.8·10^−9 M"}, "[5]": {"conditions": "seeds treated 5.5 · 10^−9M, sprayed 1.8·10^−10 M"}, "[6]": {"conditions": "seeds treated 5.5 · 10^−10M, sprayed 1.8·10^−11 M"}}, "data": [{"molecule": "CCOC(=O)C=C([O-])C(=O)OCC.[Na+]", "note": "[DEOA, sodium salt of diethyl ester of oxaloacetic acid]", "values": [{"measurement": "Effect on wheat growth, yield and quality (in words)", "result": "express ability to stimulate growth, increase yield and quality of wheat"}, {"measurement": "1000 grains weight", "setting": "[1]", "result": 48.15, "unit": "g"}, {"measurement": "Gluten", "setting": "[1]", "result": 31.85, "unit": "% dry basis"}, {"measurement": "Main head length", "setting": "[1]", "result": 8.6, "unit": "cm"}, {"measurement": "Number of grains from main head", "setting": "[1]", "result": 39, "unit": "pcs"}, {"measurement": "Number of stems", "setting": "[1]", "result": 612, "unit": "pcs/m^2"}, {"measurement": "Plant height", "setting": "[1]", "result": 101.7, "unit": "cm"}, {"measurement": "Productive tilling capacity", "setting": "[1]", "result": 1.34}, {"measurement": "Protein (N 5.7)", "setting": "[1]", "result": 14.88, "unit": "% dry basis"}, {"measurement": "Starch", "setting": "[1]", "result": 61.15, "unit": "% dry basis"}, {"measurement": "Weight of grains from main head", "setting": "[1]", "result": 1.91, "unit": "g"}, {"measurement": "Yield", "setting": "[1]", "result": 5.50, "unit": "t/ha"}, {"measurement": "Yield, % (comparing to control)", "setting": "[1]", "result": 112.7, "unit": "%"}, {"measurement": "1000 grains weight", "setting": "[2]", "result": 46.88, "unit": "g"}, {"measurement": "Gluten", "setting": "[2]", "result": 32.91, "unit": "% dry basis"}, {"measurement": "Main head length", "setting": "[2]", "result": 9.2, "unit": "cm"}, {"measurement": "Number of grains from main head", "setting": "[2]", "result": 41, "unit": "pcs"}, {"measurement": "Number of stems", "setting": "[2]", "result": 408, "unit": "pcs/m^2"}, {"measurement": "Plant height", "setting": "[2]", "result": 99.4, "unit": "cm"}, {"measurement": "Productive tilling capacity", "setting": "[2]", "result": 1.33}, {"measurement": "Protein (N 5.7)", "setting": "[2]", "result": 14.95, "unit": "% dry basis"}, {"measurement": "Starch", "setting": "[2]", "result": 61.43, "unit": "% dry basis"}, {"measurement": "Weight of grains from main head", "setting": "[2]", "result": 1.96, "unit": "g"}, {"measurement": "Yield", "setting": "[2]", "result": 5.32, "unit": "t/ha"}, {"measurement": "Yield, % (comparing to control)", "setting": "[2]", "result": 109.0, "unit": "%"}, {"measurement": "1000 grains weight", "setting": "[3]", "result": 48.38, "unit": "g"}, {"measurement": "Gluten", "setting": "[3]", "result": 31.61, "unit": "% dry basis"}, {"measurement": "Main head length", "setting": "[3]", "result": 10.8, "unit": "cm"}, {"measurement": "Number of grains from main head", "setting": "[3]", "result": 51, "unit": "pcs"}, {"measurement": "Number of stems", "setting": "[3]", "result": 324, "unit": "pcs/m^2"}, {"measurement": "Plant height", "setting": "[3]", "result": 104.3, "unit": "cm"}, {"measurement": "Productive tilling capacity", "setting": "[3]", "result": 1.69}, {"measurement": "Protein (N 5.7)", "setting": "[3]", "result": 14.14, "unit": "% dry basis"}, {"measurement": "Starch", "setting": "[3]", "result": 61.60, "unit": "% dry basis"}, {"measurement": "Weight of grains from main head", "setting": "[3]", "result": 2.65, "unit": "g"}, {"measurement": "Yield", "setting": "[3]", "result": 5.00, "unit": "t/ha"}, {"measurement": "Yield, % (comparing to control)", "setting": "[3]", "result": 102.5, "unit": "%"}]}, {"molecule": "Sodium salt of dimethyl ester of oxaloacetic acid [DMOA]", "values": [{"measurement": "Effect on wheat growth, yield and quality (in words)", "result": "express ability to stimulate growth, increase yield and quality of wheat"}, {"measurement": "1000 grains weight", "setting": "[4]", "result": 46.22, "unit": "g"}, {"measurement": "Gluten", "setting": "[4]", "result": 33.64, "unit": "% dry basis"}, {"measurement": "Main head length", "setting": "[4]", "result": 8.7, "unit": "cm"}, {"measurement": "Number of grains from main head", "setting": "[4]", "result": 36, "unit": "pcs"}, {"measurement": "Number of stems", "setting": "[4]", "result": 420, "unit": "pcs/m^2"}, {"measurement": "Plant height", "setting": "[4]", "result": 101.5, "unit": "cm"}, {"measurement": "Productive tilling capacity", "setting": "[4]", "result": 1.57}, {"measurement": "Protein (N 5.7)", "setting": "[4]", "result": 14.88, "unit": "% dry basis"}, {"measurement": "Starch", "setting": "[4]", "result": 61.54, "unit": "% dry basis"}, {"measurement": "Weight of grains from main head", "setting": "[4]", "result": 1.76, "unit": "g"}, {"measurement": "Yield", "setting": "[4]", "result": 6.44, "unit": "t/ha"}, {"measurement": "Yield, % (comparing to control)", "setting": "[4]", "result": 131.9, "unit": "%"}, {"measurement": "1000 grains weight", "setting": "[5]", "result": 47.07, "unit": "g"}, {"measurement": "Gluten", "setting": "[5]", "result": 34.71, "unit": "% dry basis"}, {"measurement": "Main head length", "setting": "[5]", "result": 8.9, "unit": "cm"}, {"measurement": "Number of grains from main head", "setting": "[5]", "result": 37, "unit": "pcs"}, {"measurement": "Number of stems", "setting": "[5]", "result": 752, "unit": "pcs/m^2"}, {"measurement": "Plant height", "setting": "[5]", "result": 105.1, "unit": "cm"}, {"measurement": "Productive tilling capacity", "setting": "[5]", "result": 1.21}, {"measurement": "Protein (N 5.7)", "setting": "[5]", "result": 14.92, "unit": "% dry basis"}, {"measurement": "Starch", "setting": "[5]", "result": 61.72, "unit": "% dry basis"}, {"measurement": "Weight of grains from main head", "setting": "[5]", "result": 1.79, "unit": "g"}, {"measurement": "Yield", "setting": "[5]", "result": 6.49, "unit": "t/ha"}, {"measurement": "Yield, % (comparing to control)", "setting": "[5]", "result": 133.0, "unit": "%"}, {"measurement": "1000 grains weight", "setting": "[6]", "result": 46.51, "unit": "g"}, {"measurement": "Gluten", "setting": "[6]", "result": 33.81, "unit": "% dry basis"}, {"measurement": "Main head length", "setting": "[6]", "result": 8.8, "unit": "cm"}, {"measurement": "Number of grains from main head", "setting": "[6]", "result": 37, "unit": "pcs"}, {"measurement": "Number of stems", "setting": "[6]", "result": 396, "unit": "pcs/m^2"}, {"measurement": "Plant height", "setting": "[6]", "result": 104.1, "unit": "cm"}, {"measurement": "Productive tilling capacity", "setting": "[6]", "result": 1.48}, {"measurement": "Protein (N 5.7)", "setting": "[6]", "result": 14.73, "unit": "% dry basis"}, {"measurement": "Starch", "setting": "[6]", "result": 61.27, "unit": "% dry basis"}, {"measurement": "Weight of grains from main head", "setting": "[6]", "result": 1.71, "unit": "g"}, {"measurement": "Yield", "setting": "[6]", "result": 6.41, "unit": "t/ha"}, {"measurement": "Yield, % (comparing to control)", "setting": "[6]", "result": 131.4, "unit": "%"}]}]}
